Assay results taken from patent US20240069011A1, “PREDICTING EFFICACY OF OR RESISTANCE TO TREATMENT OF COLON CANCER” (2cureX A/S, priority 2020, published 2024).

Tests used:
[1] = tested on: tumoroids from colon cancer patients; experiment: Tumoroid ATP content (CellTiter-Glo 3D cell viability assay); type: cell-based, human; details: 50% inhibition of total ATP content, day 7, tumoroids from four control patients
Procedure: The tumoroids were prepared from the same patient samples as described above under “drug sensitivity measured with imaging”. The tumoroids were added to drug screening arrays that we pre-loaded with varying concentrations of Oxaliplatin (3, 10, 30, 100, 300 uM), FOLFOX (0, 1, 0, 3, 1, 3, 10 30 uM. Equal concentrations of 5-Fluorouracil and Oxaliplatin) and SN38 (10, 30, 100, 300, 1000 nM). ATP content of cells in the tumoroids was measured day 0 and on day 7 using CellTiter-Glo 3D cell viability assay (Promega; Catalog number G9681). The homogenous CellTiter-Glo 3D assays generates a luminescent signal that is proportional to the amount of cellular ATP. The assay was conducted in accordance with the instructions from the manufacture (Promega) by allowing the drug screening arrays to equilibrate to room temperature (20-25° C.) and then adding an amount of the CellTiter-Glo 3D reagent to the drug screening arrays. The equal volume of media and reagent is mixed thoroughly for 5 min to induce cell lysis and release of cellular ATP content. The luminescence signal was monitored with the Cytation 1 (BioTek) imaging system operating in luminescence mode. The luminescence signal was quantified by direct comparison to an ATP dose-response curve created by replacing the drug screening media with ATP standards.

[2] = tested on: tumoroids from colon cancer patients; experiment: Tumoroid growth inhibition measured as projected area by imaging (CyQUANT, IndiNet); type: cell-based, human; details: 50% inhibition of tumoroid growth (projected area), day 7, tumoroids from four control patients
Procedure: The tumoroids were prepared from patient samples as described above in Example 2 under “3D tumoroid preparation”. The tumoroids were added to drug screening arrays that we pre-loaded with varying concentrations of Oxaliplatin (3, 10, 30, 100, 300 uM), FOLFOX (0, 1, 0, 3, 1, 3, 10 30 uM. Equal concentrations of 5-Fluorouracil and Oxaliplatin) and SN38 (10, 30, 100, 300, 1000 nM). SN38 is the active components of Irinotecan. At day 6 to day 7 tumoroids were stained with CyQUANT (cell proliferation assay). Tumoroid growth was measured by taking brightfield images on day 0 and visualizing living cells using CyQUANT Cell proliferation assay (ThermoFisher) on day 7. All images were acquired using a Cytation 1 (BioTek) imaging system. For Control patients, tissue from resected tumor was used. This sampling method typically secures bigger amounts of tissue and mechanically as well as enzymatically digestion is performed.
Images from day 0 and day 7 were analysed using the Al image analysis algorithm IndiNet™, which quantifies the projected area (referred to as “area” in this example) of live cells in both brightfield (day 0) and fluorescence (day 7) images and calculates the relative growth inhibition. […]

[3] = Folfox = equal concentrations of 5-Fluorouracil and Oxaliplatin

IC50 [1]	IC50 [2]	Structure (SMILES)	IC50 [1, 3]	IC50 [2, 3]
0.0367 µM	0.00164 µM	CCc1c2c(nc3ccc(O)cc13)-c1cc3c(c(=O)n1C2)COC(=O)[C@]3(O)CC [SN38]	–	–
–	–	O=C1[O][Pt]2([NH][C@@H]3CCCC[C@H]3[NH]2)[O]C1=O [Oxaliplatin, oxaliplatin]	72.7 µM	17.7 µM
